According to patent US11584763B2, “Chromenopyridine derivatives as phosphatidylinositol phosphate kinase inhibitors” (HIBERCELL, INC., priority 2017, dated 2023):
pIC50: −log10 of the molar value.

Tests used:
Assay type in all cases: biochemical
PIP4K2B = target: T1, PIP4K2B (Homo sapiens, UniProt P78356); assay: Trans-FI P kinase assay PIP4K2B (PIP4KtypeIIB inhibition assay); conditions: compounds listed under IC50 bin headings; 100 uM GTP; read-out: Trans-FI P kinase assays: PIP4K2B IC50
T1 construct: made in house; host or cells: E. coli
T1 sequence (P78356 1-416): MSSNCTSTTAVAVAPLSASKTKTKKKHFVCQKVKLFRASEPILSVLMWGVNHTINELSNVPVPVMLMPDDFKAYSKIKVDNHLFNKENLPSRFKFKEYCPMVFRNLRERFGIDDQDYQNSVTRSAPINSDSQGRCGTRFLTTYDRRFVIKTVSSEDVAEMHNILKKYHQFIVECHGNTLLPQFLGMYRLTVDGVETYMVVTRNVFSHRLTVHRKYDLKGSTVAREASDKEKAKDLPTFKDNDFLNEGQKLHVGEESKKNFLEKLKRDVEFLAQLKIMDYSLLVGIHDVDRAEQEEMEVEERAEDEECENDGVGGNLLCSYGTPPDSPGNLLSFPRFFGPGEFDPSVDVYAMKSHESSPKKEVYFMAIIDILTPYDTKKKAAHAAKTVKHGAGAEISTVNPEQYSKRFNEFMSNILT
Method in brief: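 GST-tagged human PIP4K2B (5 nM, E. coli-expressed) preincubated 1 h at 27 C with compound (top 4.8 uM, 5% DMSO), then reacted 2 h with 100 uM GTP and 80 uM PI5P/DOPE vesicles in HEPES pH 7.3, MgCl2, Triton X-100. GDP detected by Transcreener FI fluorescence via calibration curve; IC50 from % activity vs log[inhibitor].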

PIP4K 2A [1] = target: T2, PIP4K 2A (Homo sapiens, UniProt P48426); assay: Kinase Assay PIP4K2 A (PIP4KtypeIIA inhibition assay); design: made in house; host or cells: E. coli; conditions: compounds listed under IC50 bin headings
T2 sequence (P48426 1-406): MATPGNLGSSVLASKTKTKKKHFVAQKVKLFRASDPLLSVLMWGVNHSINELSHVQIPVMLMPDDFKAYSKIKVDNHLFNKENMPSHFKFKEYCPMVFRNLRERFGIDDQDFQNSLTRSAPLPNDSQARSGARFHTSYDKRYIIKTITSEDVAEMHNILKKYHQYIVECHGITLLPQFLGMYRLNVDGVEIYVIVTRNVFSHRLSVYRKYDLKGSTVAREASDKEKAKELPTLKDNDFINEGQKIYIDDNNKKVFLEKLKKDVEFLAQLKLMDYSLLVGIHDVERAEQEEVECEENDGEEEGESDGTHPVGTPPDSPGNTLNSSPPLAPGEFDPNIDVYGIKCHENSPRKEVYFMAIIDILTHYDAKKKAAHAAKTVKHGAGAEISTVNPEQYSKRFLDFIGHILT
Method in brief: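 GST-tagged enzyme from E. coli at 0.5 nM final was preincubated with compound for 1 h at 27 C, then reacted with 10 uM ATP, 80 uM PI5P and DOPE carrier in 50 mM HEPES pH 7.3, 5% DMSO. After 1 h, ADP was measured by ADP-Glo luminescence against a calibration curve. IC50 was fitted from % residual activity.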

PIP4K 2A [2] = target: T2, PIP4K 2A; assay: ADP-glo kinase assay PIP4K 2A; design: 4 nM PIP4K2A (full length protein, SignalChem); purchased SignalChem; conditions: compounds listed under IC50 bin headings
Method in brief: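 Full-length PIP4K2A was pre-incubated 15 min at RT with compound in 20 mM MOPS pH 7.2, 25 mM MgCl2, 0.005% Tween 20. The enzyme mix held 4 nM kinase and 100 μM PI(5)P diC8, and ATP was added from a 60 μM solution. After 1 h at RT, ADP-Glo luminescence gave % inhibition versus DMSO, fitted to IC50 over 10 threefold dilutions.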

Row | pIC50 (PIP4K2B) | pIC50 (PIP4K 2A [1]) | pIC50 (PIP4K 2A [2]) | SMILES
1 | 8.00 to 9.00 | ≥ 9.00 | ≥ 9.00 | CC1Oc2cc(N3CCCC3=O)ccc2-c2cnc(Nc3cnc4c(c3)N(C(=O)C(C)(C)C)CCO4)cc21 (stereo not drawn) [Example 86, 1-(5-methyl-3-((1-pivaloyl-2,3-dihydro-1H-pyrido[2,3-b][1,4]oxazin-7-yl)amino)-5H-chromeno[4,3-c]pyridin-8-yl)pyrrolidin-2-one]
2 | 7.00 to 8.00 | 8.00 to 9.00 | 8.00 to 9.00 | COc1ncc(Nc2cc3c(cn2)-c2ccc(N4CCCC4=O)cc2OC3C)cc1NC(C)=O (stereo not drawn) [Example 87, N-(2-methoxy-5-((5-methyl-8-(2-oxopyrrolidin-1-yl)-5H-chromeno[4,3-c]pyridin-3-yl)amino)pyridin-3-yl)acetamide]
3 | 7.00 to 8.00 | 8.00 to 9.00 | 8.00 to 9.00 | COc1ncc(Nc2cc3c(cn2)-c2ccc(N4CCCC4=O)cc2OC3C)cc1NS(C)(=O)=O (stereo not drawn) [Example 88, N-(2-methoxy-5-((5-methyl-8-(2-oxopyrrolidin-1-yl)-5H-chromeno[4,3-c]pyridin-3-yl)amino)pyridin-3-yl)methanesulfonamide]
4 | < 6.00 | 6.00 to 7.00 | 6.00 to 7.00 | COc1ncc(Nc2cc3c(cn2)-c2ccc(N4CCCC4=O)cc2OC3C)cc1N(C)C(C)=O (stereo not drawn) [Example 89, N-(2-methoxy-5-((5-methyl-8-(2-oxopyrrolidin-1-yl)-5H-chromeno[4,3-c]pyridin-3-yl)amino)pyridin-3-yl)-N-methylacetamide]
5 | 6.00 to 7.00 | 8.00 to 9.00 | 7.00 to 8.00 | COc1ncc(Nc2cc3c(cn2)-c2ccc(N4CCCC4=O)cc2OC3C)cc1N(C)S(C)(=O)=O (stereo not drawn) [Example 90, N-(2-methoxy-5-((5-methyl-8-(2-oxopyrrolidin-1-yl)-5H-chromeno[4,3-c]pyridin-3-yl)amino)pyridin-3-yl)-N-methylmethanesulfonamide]
6 | < 6.00 | 7.00 to 8.00 | 7.00 to 8.00 | CC1Oc2cc(N3CCCC3=O)ccc2-c2cnc(Nc3cncc(S(C)(=O)=O)c3)cc21 (stereo not drawn) [Example 91, 1-(5-methyl-3-((5-(methylsulfonyl)pyridin-3-yl)amino)-5H-chromeno[4,3-c]pyridin-8-yl)pyrrolidin-2-one]
7 | 6.00 to 7.00 | 8.00 to 9.00 | 7.00 to 8.00 | CC1Oc2cc(N3CCCC3=O)ccc2-c2cnc(Nc3cnc4c(c3)NC(=O)CO4)cc21 (stereo not drawn) [Example 93, 7-((5-methyl-8-(2-oxopyrrolidin-1-yl)-5H-chromeno[4,3-c]pyridin-3-yl)amino)-1H-pyrido[2,3-b][1,4]oxazin-2(3H)-one]
8 | 7.00 to 8.00 | 8.00 to 9.00 | 8.00 to 9.00 | CC1Oc2cc(N3CCCC3=O)ccc2-c2cnc(Nc3cnc4c(c3)NCCO4)cc21 (stereo not drawn) [Example 94, 1-(3-((2,3-dihydro-1H-pyrido[2,3-b][1,4]oxazin-7-yl)amino)-5-methyl-5H-chromeno[4,3-c]pyridin-8-yl)pyrrolidin-2-one]
9 | 6.00 to 7.00 | 8.00 to 9.00 | 7.00 to 8.00 | CC1Oc2cc(N3CCCC3=O)ccc2-c2cnc(Nc3cncc(N4CCOCC4=O)c3)cc21 (stereo not drawn) [Example 95, 4-(5-((5-methyl-8-(2-oxopyrrolidin-1-yl)-5H-chromeno[4,3-c]pyridin-3-yl)amino)pyridin-3-yl)morpholin-3-one]
10 | 6.00 to 7.00 | 8.00 to 9.00 | 8.00 to 9.00 | CC1Oc2cc(N3CCCC3=O)ccc2-c2cnc(Nc3cncc(N4CCOCC4)c3)cc21 (stereo not drawn) [Example 96, 1-(5-methyl-3-((5-morpholinopyridin-3-yl)amino)-5H-chromeno[4,3-c]pyridin-8-yl)pyrrolidin-2-one]
11 | 6.00 to 7.00 | ≥ 9.00 | 8.00 to 9.00 | Cc1cncc(Nc2cc3c(cn2)-c2ccc(N4CCCC4=O)cc2OC3C)c1 (stereo not drawn) [Example 97, 1-(5-methyl-3-((5-methylpyridin-3-yl)amino)-5H-chromeno[4,3-c]pyridin-8-yl)pyrrolidin-2-one]
12 | 7.00 to 8.00 | ≥ 9.00 | 7.00 to 8.00 | CC(=O)Nc1cncc(Nc2cc3c(cn2)-c2ccc(N4CCCC4=O)cc2OC3C)c1 (stereo not drawn) [Example 100, N-(5-((5-methyl-8-(2-oxopyrrolidin-1-yl)-5H-chromeno[4,3-c]pyridin-3-yl)amino)pyridin-3-yl)acetamide]
13 | 7.00 to 8.00 | ≥ 9.00 | 8.00 to 9.00 | CC1Oc2cc(N3CCCC3=O)ccc2-c2cnc(Nc3cncc(NC(=O)NCc4ccccc4)c3)cc21 (stereo not drawn) [Example 103, 1-benzyl-3-(5-((5-methyl-8-(2-oxopyrrolidin-1-yl)-5H-chromeno[4,3-c]pyridin-3-yl)amino)pyridin-3-yl)urea]
14 | 7.00 to 8.00 | ≥ 9.00 | 8.00 to 9.00 | CC1Oc2cc(N3CCCC3=O)ccc2-c2cnc(Nc3cncc(NC(=O)c4cccc(N)c4)c3)cc21 (stereo not drawn) [Example 106, 3-amino-N-(5-((5-methyl-8-(2-oxopyrrolidin-1-yl)-5H-chromeno[4,3-c]pyridin-3-yl)amino)pyridin-3-yl)benzamide]
15 | < 6.00 | 7.00 to 8.00 | 6.00 to 7.00 | CC1Oc2cc(N3CCCC3=O)ccc2-c2cnc(Nc3ccnnc3)cc21 (stereo not drawn) [Example 127, 1-(5-methyl-3-(pyridazin-4-ylamino)-5H-chromeno[4,3-c]pyridin-8-yl)pyrrolidin-2-one]
16 | 6.00 to 7.00 | 8.00 to 9.00 | 7.00 to 8.00 | CC1Oc2cc(N3CCCC3=O)ccc2-c2cnc(Nc3cccnn3)cc21 (stereo not drawn) [Example 128, 1-(5-methyl-3-(pyridazin-3-ylamino)-5H-chromeno[4,3-c]pyridin-8-yl)pyrrolidin-2-one]
17 | 7.00 to 8.00 | 8.00 to 9.00 | 8.00 to 9.00 | CC1Oc2cc(N3CCCC3=O)ccc2-c2cnc(Nc3cncc(Nc4ccccn4)c3)cc21 (stereo not drawn) [Example 130, 1-(5-methyl-3-((5-(pyridin-2-ylamino)pyridin-3-yl)amino)-5H-chromeno[4,3-c]pyridin-8-yl)pyrrolidin-2-one]
18 | 7.00 to 8.00 | ≥ 9.00 | 8.00 to 9.00 | CC1Oc2cc(N3CCCC3=O)ccc2-c2cnc(Nc3cncc(Nc4cccnn4)c3)cc21 (stereo not drawn) [Example 131, 1-(5-methyl-3-((5-(pyridazin-3-ylamino)pyridin-3-yl)amino)-5H-chromeno[4,3-c]pyridin-8-yl)pyrrolidin-2-one]
19 | 8.00 to 9.00 | ≥ 9.00 | ≥ 9.00 | CC1(C)Oc2cc(N3CCCC3=O)c(F)cc2-c2cnc(Nc3cnc4c(c3)N3C(=O)CC[C@H]3CO4)cc21 [Example 148, (S)-2-((9-fluoro-5,5-dimethyl-8-(2-oxopyrrolidin-1-yl)-5H-chromeno[4,3-c]pyridin-3-yl)amino)-6,6a,7,8-tetrahydro-9H-pyrido[2,3-b]pyrrolo[1,2-d][1,4]oxazin-9-one]
20 | 7.00 to 8.00 | ≥ 9.00 | 8.00 to 9.00 | CC1(C)Oc2cc(N3CCCC3=O)c(F)cc2-c2cnc(Nc3cncc(N4CCNC4=O)c3)cc21 [Example 149, 1-(5-((9-fluoro-5,5-dimethyl-8-(2-oxopyrrolidin-1-yl)-5H-chromeno[4,3-c]pyridin-3-yl)amino)pyridin-3-yl)imidazolidin-2-one]
21 | 7.00 to 8.00 | ≥ 9.00 | 8.00 to 9.00 | CC1(C)Oc2cc(N3CCCC3=O)ccc2-c2cnc(Nc3cnc4c(c3)OCCO4)cc21 [Example 164, 1-(3-((2,3-dihydro-[1,4]dioxino[2,3-b]pyridin-7-yl)amino)-5,5-dimethyl-5H-chromeno[4,3-c]pyridin-8-yl)pyrrolidin-2-one]
22 | 7.00 to 8.00 | ≥ 9.00 | ≥ 9.00 | CC1(C)Oc2cc(N3CCCC3=O)c(F)cc2-c2cnc(Nc3cnc4c(c3)OCCO4)cc21 [Example 167, 1-(3-((2,3-dihydro-[1,4]dioxino[2,3-b]pyridin-7-yl)amino)-9-fluoro-5,5-dimethyl-5H-chromeno[4,3-c]pyridin-8-yl)pyrrolidin-2-one]
